Results on 20 compounds are retold here after PubChem BioAssay (NCI).

Each structure is given as a SMILES string. Several values for one entry are separate records, joined by “and”; a condition that tells them apart may be missing. Identical values can stand only once.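 Cells were grown in 96-well plates and exposed to each compound for 48 hours at five concentrations; endpoints were interpolated linearly between bracketing concentrations, or set to the highest concentration if not reached. GI50 = concentration required for 50% inhibition of growth. At the TGI there is no net growth.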

Test systems include COLO 205 colon; U251 CNS; HOP-92 NSCLC; DLD-1 colon; SK-MEL-28 melanoma; RXF 393 renal; EKVX NSCLC; CAKI-1 renal; SNB-78 CNS; NCI-H23 lung.
Holding throughout (test): growth of human tumour cells (NCI), 48 h

On to `COc1ccc(OC)c(/C=N/N=C(\N)NO)c1`, for which the TGI with COLO 205 colon is 66.2 µM; in the assay with U251 CNS, above 100 µM; in the assay on HOP-92 NSCLC, 83.6 µM; in the assay with DLD-1 colon, above 100 µM; in the assay with SK-MEL-28 melanoma, above 100 µM; with RXF 393 renal it was above 100 µM. Also, the TGI in the assay on EKVX NSCLC is above 100 µM; in the assay with CAKI-1 renal it was 71.4 µM; in the assay on SNB-78 CNS, above 100 µM; in the assay with NCI-H23 lung, above 100 µM.

With `Cc1nc2c(o1)C(=Nc1ccccc1)c1nc(C)oc1C2=Nc1ccccc1`, the TGI in the assay with COLO 205 colon is above 100 µM; with U251 CNS, 33.1 µM; in the assay on HOP-92 NSCLC, 44.1 µM; in the assay with DLD-1 colon, 67.9 µM; with SK-MEL-28 melanoma, 44.9 µM; with RXF 393 renal it was 37.5 µM. Moreover, the values for the TGI with SNB-78 CNS and in the assay with NCI-H23 lung were above 100 µM and 63.7 µM, respectively.

Regarding `COC1OC2COC(C)(C)OC2C(OC(C)=O)C1NC(=O)N(CCCl)N=O` (configuration not stated), the TGI in the assay on COLO 205 colon, in the assay on U251 CNS, in the assay with DLD-1 colon, in the assay with SK-MEL-28 melanoma, in the assay with RXF 393 renal and in the assay with EKVX NSCLC was above 100 µM throughout. The TGI in the assay with CAKI-1 renal, with SNB-78 CNS and in the assay with NCI-H23 lung was above 100 µM each time.

On to `CN(/N=C/c1ccnc2ccccc12)c1c([N+](=O)[O-])cc([N+](=O)[O-])cc1[N+](=O)[O-]`, for which the TGI in the assay with COLO 205 colon, with U251 CNS, in the assay with HOP-92 NSCLC, in the assay on DLD-1 colon, with SK-MEL-28 melanoma and with RXF 393 renal was above 100 µM in each case. Besides, the TGI with EKVX NSCLC, in the assay with CAKI-1 renal, with SNB-78 CNS and in the assay with NCI-H23 lung was above 100 µM throughout.

Regarding `O=C(/C=C\c1cccc2ccccc12)c1ccc(Cl)cc1Cl`, the TGI with COLO 205 colon was 45.5 µM; in the assay with U251 CNS, 30.7 µM; in the assay on DLD-1 colon, 40.8 µM; with SK-MEL-28 melanoma, 38.4 µM; in the assay with EKVX NSCLC, above 100 µM; with CAKI-1 renal, above 100 µM. Besides, the TGI is 45.5 µM with SNB-78 CNS and above 100 µM with NCI-H23 lung.

For `Cc1cc(C)c(-c2noc(-c3ccc(Cl)cc3)c2C2=NCCCN2)c(C)c1`, the TGI in the assay on COLO 205 colon is 35.1 µM; with U251 CNS, 25.8 µM; in the assay on DLD-1 colon it was above 100 µM; in the assay on SK-MEL-28 melanoma, 29.9 µM; with RXF 393 renal, 48.5 µM; with EKVX NSCLC it was above 100 µM. Moreover, the TGI with CAKI-1 renal was above 100 µM; with SNB-78 CNS, above 100 µM; in the assay on NCI-H23 lung, 40.1 µM.

For `COC(=O)C1=CC2C=CC(C1C(=O)OC)C1C(C(=O)OC)=C(C(=O)OC)C(C(=O)OC)=C(C(=O)OC)C21OC` (configuration not stated), the TGI with COLO 205 colon, with U251 CNS, in the assay with HOP-92 NSCLC, in the assay on DLD-1 colon, in the assay with SK-MEL-28 melanoma and in the assay with RXF 393 renal was above 100 µM throughout. The TGI in the assay on EKVX NSCLC, in the assay with CAKI-1 renal, in the assay on SNB-78 CNS and in the assay with NCI-H23 lung was above 100 µM throughout.

With `COc1cc(/C=N/N=C(\N)NO)c(Cl)cc1O`, the TGI in the assay on COLO 205 colon was above 100 µM; with U251 CNS, above 100 µM; with HOP-92 NSCLC, 73.2 µM; in the assay with SK-MEL-28 melanoma, above 100 µM; with RXF 393 renal, above 100 µM; in the assay with EKVX NSCLC it was above 100 µM. The TGI in the assay on CAKI-1 renal, in the assay with SNB-78 CNS and with NCI-H23 lung was above 100 µM throughout.

On to `O=C1c2ccccc2C2CCC1c1ccccc12` (configuration not stated), for which the TGI in the assay on COLO 205 colon is 46.8 µM; in the assay on U251 CNS, above 100 µM; in the assay on HOP-92 NSCLC, 72.2 µM; in the assay with DLD-1 colon, above 100 µM; in the assay on SK-MEL-28 melanoma, above 100 µM; in the assay with RXF 393 renal it was 78 µM. The TGI in the assay with EKVX NSCLC was above 100 µM; with CAKI-1 renal, above 100 µM; in the assay on SNB-78 CNS, above 100 µM; in the assay on NCI-H23 lung, 65 µM.

Take `CCc1nc2ccc(N=Nc3c(O)ccc4ccccc34)cc2[nH]1`: the TGI in the assay with COLO 205 colon was 39 µM; with U251 CNS it was 39.9 µM; with HOP-92 NSCLC, 42.7 µM; with DLD-1 colon it was 57.3 µM; in the assay with SK-MEL-28 melanoma, 41.5 µM; in the assay on RXF 393 renal, 25.6 µM. Moreover, the TGI worked out at 36.1 µM in the assay on EKVX NSCLC, 40.2 µM in the assay on CAKI-1 renal, 32.7 µM in the assay with SNB-78 CNS and 49.2 µM in the assay on NCI-H23 lung.

Regarding `O=C(Nc1ccc(Cl)c(Cl)c1)C(=O)C(C(=O)c1ccccc1-c1ccccc1)C1OC(=O)c2ccccc21` (configuration not stated), the TGI was 30.2 µM in the assay on COLO 205 colon; 23 µM in the assay on U251 CNS; 30.2 µM in the assay on HOP-92 NSCLC; 30.1 µM with DLD-1 colon; above 100 µM with SK-MEL-28 melanoma; 21.5 µM in the assay with RXF 393 renal. In addition, the TGI in the assay on EKVX NSCLC was 43.4 µM; in the assay with SNB-78 CNS, above 100 µM; with NCI-H23 lung it was 24.6 µM.

As to `Nc1c(Cl)ncnc1NCCCCCCCCCCCCNc1ncnc(Cl)c1N`, the TGI in the assay with COLO 205 colon is 21.9 µM; in the assay with U251 CNS, 4.64 µM; in the assay on HOP-92 NSCLC, 4.3 µM; with DLD-1 colon, above 100 µM; in the assay with SK-MEL-28 melanoma, 5.22 µM; in the assay on RXF 393 renal it was 8.01 µM. In addition, the TGI in the assay on EKVX NSCLC came to 98.1 µM; with SNB-78 CNS, 3.54 µM; in the assay on NCI-H23 lung, 2.41 µM.

Take `O=C(Nc1ccc(Cl)cc1Cl)OC(Cn1cncn1)c1ccc(Cl)cc1Cl` (configuration not stated): the TGI was found to be 31.5 µM in the assay with COLO 205 colon; 29.7 µM in the assay on U251 CNS; 35 µM in the assay on DLD-1 colon; 30.1 µM in the assay on SK-MEL-28 melanoma; 30.9 µM in the assay with RXF 393 renal; 31.5 µM with EKVX NSCLC. For the same compound, the TGI with SNB-78 CNS stood at 38.6 µM; in the assay with NCI-H23 lung it was 28.4 µM.

For `COC(=O)[C@@]12CC(C(C)C)[C@H]3CC(C(=O)C=C1OC)[C@H]32` (some centres not stated), the TGI in the assay on COLO 205 colon, in the assay with U251 CNS, in the assay on HOP-92 NSCLC, in the assay with DLD-1 colon, in the assay on SK-MEL-28 melanoma and with RXF 393 renal was above 100 µM throughout. The TGI in the assay with EKVX NSCLC, with CAKI-1 renal, in the assay on SNB-78 CNS and with NCI-H23 lung was above 100 µM throughout.

With `COC(=O)C1C(=O)O[C@@H](c2cc(OC)c(OC)cc2OC)C1C(=O)OC` (mixture of isomers), the TGI in the assay with COLO 205 colon, with U251 CNS, with HOP-92 NSCLC, in the assay with DLD-1 colon, in the assay on SK-MEL-28 melanoma and in the assay with RXF 393 renal was above 100 µM each time. The TGI in the assay with EKVX NSCLC, in the assay on CAKI-1 renal, with SNB-78 CNS and with NCI-H23 lung was above 100 µM in each case.

With `NC1=NN(c2ccccc2)C(=O)C1C(=O)C(=O)Nc1ccc(Cl)c(Cl)c1` (configuration not stated), the TGI in the assay with COLO 205 colon, with U251 CNS, in the assay on HOP-92 NSCLC, in the assay with DLD-1 colon, with SK-MEL-28 melanoma and with RXF 393 renal was above 100 µM each time. Further, the TGI in the assay on EKVX NSCLC, with CAKI-1 renal, in the assay with SNB-78 CNS and in the assay on NCI-H23 lung was above 100 µM each time.

Consider `CC(C)CCCCCCCCCCCCC(=O)NCC(=O)NC1C(O)C(O)C(Nc2ncnc3nc[nH]c23)OC1C(O)CO` (configuration not stated), for which the TGI with COLO 205 colon is 0.00316 µM and 0.00155 µM and 0.00526 µM; in the assay on DLD-1 colon, 3.83 µM; in the assay on SK-MEL-28 melanoma it was 0.37 µM and 0.797 µM; with EKVX NSCLC it was 0.0228 µM and 0.0578 µM and 0.0199 µM; with CAKI-1 renal, 0.0011 µM and 0.000619 µM; in the assay on SNB-78 CNS it was 0.0647 µM and 0.244 µM. In addition, in the assay with NCI-H23 lung, the TGI is 0.0354 µM and 0.0371 µM. Moreover, the GI50 is below 0.01 nM in the assay with HOP-92 NSCLC; 0.0104 µM in the assay on DLD-1 colon; 0.00334 µM and 0.0102 µM with SK-MEL-28 melanoma; below 0.01 nM with RXF 393 renal; below 0.01 nM in the assay with CAKI-1 renal; 0.005 µM in the assay with SNB-78 CNS. For the same compound, in the assay on NCI-H23 lung, the GI50 was 0.005 µM.

For the compound `O=C1/C(=C/c2ccc(Cl)cc2)CNC/C1=C\c1ccc(Cl)cc1`, the GI50 is 2.61 µM in the assay with COLO 205 colon; 0.502 µM in the assay on U251 CNS; 1.3 µM with SK-MEL-28 melanoma; 1640 nM and 3970 nM in the assay with RXF 393 renal; 5.74 µM and 2.29 µM in the assay on EKVX NSCLC. Besides, the TGI is 4.25 µM and 8.35 µM in the assay on COLO 205 colon; 3.67 µM and 1.78 µM in the assay on U251 CNS; above 26.2 µM in the assay with HOP-92 NSCLC; 6.78 µM in the assay with DLD-1 colon; 3.74 µM and 2.96 µM with SK-MEL-28 melanoma; 3 µM and 7.85 µM in the assay on RXF 393 renal. The TGI with EKVX NSCLC was 21.2 µM and 6.75 µM; in the assay with CAKI-1 renal, 5.98 µM and 3.82 µM; with SNB-78 CNS, 12.1 µM; in the assay on NCI-H23 lung it was 4.17 µM and 4.24 µM.

With `COc1c(-c2ccccc2)nc2ccc(Oc3ccccc3)nn12`, the TGI with COLO 205 colon was above 65 µM; in the assay with U251 CNS, above 100 µM; in the assay on HOP-92 NSCLC, above 100 µM; with DLD-1 colon it was above 100 µM; with SK-MEL-28 melanoma, 99.5 µM; in the assay with RXF 393 renal, above 73.6 µM. The TGI in the assay on EKVX NSCLC is above 100 µM; in the assay on CAKI-1 renal it was above 100 µM; in the assay with SNB-78 CNS, above 100 µM; with NCI-H23 lung, above 96.5 µM.

For the compound `Clc1cccc(-c2nnc(-c3nn(-c4ccccc4)c4nc5ccccc5nc34)o2)c1`, the TGI with COLO 205 colon, in the assay with U251 CNS, with DLD-1 colon, in the assay on SK-MEL-28 melanoma, with RXF 393 renal and with EKVX NSCLC was above 100 µM in each case. Further, the TGI in the assay on CAKI-1 renal, in the assay with SNB-78 CNS and in the assay with NCI-H23 lung was above 100 µM throughout.
